Where only a bound is given, the exact number is not on record here.

One test deals with T1, human CYP11B1 (Homo sapiens, UniProt P15538).
T1 construct: expressed in transfected cells
T1 sequence (P15538 25-503): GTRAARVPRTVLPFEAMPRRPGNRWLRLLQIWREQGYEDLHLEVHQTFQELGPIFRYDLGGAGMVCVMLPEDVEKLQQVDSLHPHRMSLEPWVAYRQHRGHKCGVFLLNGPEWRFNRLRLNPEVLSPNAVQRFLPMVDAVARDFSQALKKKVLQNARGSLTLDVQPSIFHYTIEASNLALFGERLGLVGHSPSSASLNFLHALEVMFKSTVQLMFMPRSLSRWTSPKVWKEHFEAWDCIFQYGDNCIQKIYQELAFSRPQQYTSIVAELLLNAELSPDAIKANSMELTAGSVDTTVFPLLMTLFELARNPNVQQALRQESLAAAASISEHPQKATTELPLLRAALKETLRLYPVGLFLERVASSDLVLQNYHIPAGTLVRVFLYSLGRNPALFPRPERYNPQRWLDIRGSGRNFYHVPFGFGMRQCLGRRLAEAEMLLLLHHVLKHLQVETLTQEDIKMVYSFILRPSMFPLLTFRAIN
Put plainly: G-402 cellular enzyme assay, human CYP11B1 (cortisol release, HTRF). Format: cell-based. As to conditions: G-402 cells, 1 μM Deoxycortisol. From the text:
(§1) Herein we identified the use of the G-402 cell line as a host cell to ectopically express (transiently or stably) enzymes of the CYP11 family. Specifically we developed stable G-402 cells expressing ectopically human CYP11B1, human CYP11B2, human CYP11A1, cynmolgus CYP11B1 or cynomolgus CYP11B2 enzyme activity. Importantly the identified cell line G-402 expresses co-factors (adrenodoxin and adrenodoxin reductase) important for the activity of the CYP11 family and no relevant enzyme activity of the CYP11 family (in comparison to H295R cells) was detected in these cells. Therefore the G-402 cell line is uniquely suited as a host cell for the ectopic expression of enzymes from the CYP11 family.
(§2) G-402 cells can be obtained from ATCC(CRL-1440) and were originally derived from a renal leiomyoblastoma.
(§3) The expression plasmids contain the ORF for either human/cyno CYP11B1 or CYP11B2 under the control of a suitable promoter (CMV-promoter) and a suitable resistance marker (neomycin). Using standard techniques the expression plasmid is transfected into G-402 cells and these cells are then selected for expressing the given resistance markers. Individual cell-clones are then selected and assessed for displaying the desired enzymatic activity using 11-Deoxycorticosterone (Cyp11B2) or 11-Deoxycortisol (Cyp11B1) as a substrate.
(§4) G-402 cells expressing CYP11 constructs were established as described above and maintained in McCoy's 5a Medium Modified, ATCC Catalog No. 30-2007 containing 10% FCS and 400 μg/ml G418 (Geneticin) at 37° C. under an atmosphere of 5% CO2/95% air.
(§5) Cellular enzyme assays were performed in DMEM/F12 medium containing 2.5% charcoal treated FCS and appropriate concentration of substrate (0.3-10 uM 11-Deoxycorticosterone, 11-Deoxycortisol or Corticosterone). For assaying enzymatic activity, cells were plated onto 96 well plates and incubated for 16 h. An aliquot of the supernatant is then transferred and analyzed for the concentration of the expected product (Aldosterone for CYP11B2; Cortisol for CYP11B1). The concentrations of these steroids can be determined using HTRF assays from CisBio analyzing either Aldosterone or Cortisol.
(§6) Inhibition of the release of produced steroids can be used as a measure of the respective enzyme inhibition by test compounds added during the cellular enzyme assay. The dose dependent inhibition of enzymatic activity by a compound is calculated by means of plotting added inhibitor concentrations (x-axes) vs. measured steroid/product level (y-axes). The inhibition is then calculated by fitting the following 4-parameter sigmoidal function (Morgan-Mercer-Flodin (MMF) model) to the raw data points using the least squares method:
(§7) [formula] wherein, A is the maximum y value, B is the EC50 factor determined using XLFit, C is the minimum y value and D is the slope value.
(§8) EC50 values for compounds claimed herein were tested with the G402-based assay system described. Cyp11B2 enzyme activity was tested in presence of 1 μM Deoxycorticosterone and variable amounts of inhibitors; Cyp11B1 enzyme activity was tested in presence of 1 μM Deoxycortisol and variable amounts of inhibitors.

Another test concerns the target T2, human CYP11B2 (Homo sapiens, UniProt P19099).
T2 construct: expressed in transfected cells
T2 sequence (P19099 25-503): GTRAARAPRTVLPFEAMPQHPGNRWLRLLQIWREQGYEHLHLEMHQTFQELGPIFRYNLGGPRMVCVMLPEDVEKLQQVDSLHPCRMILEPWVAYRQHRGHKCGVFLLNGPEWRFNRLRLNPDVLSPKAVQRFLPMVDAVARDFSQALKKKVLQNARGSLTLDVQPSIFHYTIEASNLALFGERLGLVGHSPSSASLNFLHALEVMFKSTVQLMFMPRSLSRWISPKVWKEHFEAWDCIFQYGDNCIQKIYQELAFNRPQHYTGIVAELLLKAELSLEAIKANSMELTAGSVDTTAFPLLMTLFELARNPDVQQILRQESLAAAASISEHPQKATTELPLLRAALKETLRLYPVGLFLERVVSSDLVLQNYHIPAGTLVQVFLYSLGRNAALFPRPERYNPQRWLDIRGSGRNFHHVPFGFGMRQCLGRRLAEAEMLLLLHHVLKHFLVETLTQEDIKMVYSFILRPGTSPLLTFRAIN
Put plainly: G-402 cellular enzyme assay, human CYP11B2 (aldosterone release, HTRF). The format is cell-based. As to conditions: G-402 cells, 1 μM Deoxycorticosterone.
Text: as §1, §2, §3, §4, §5, §6, §7, §8
Background: TR-FRET usually uses a lanthanide donor and a delayed reading to cut background.

Take `O=C1c2ccc(Cl)cc2CCN1c1cncc(NCC(F)(F)F)c1` [Example 223, 6-Chloro-2-[5-(2,2,2-trifluoro-ethylamino)-pyridin-3-yl]-3,4-dihydro-2H-isoquinolin-1-one]: the EC50 was 1420 nM on human CYP11B1 and 116 nM on human CYP11B2.

As for `Cn1cc(Cc2cncc(N3C(=O)c4ccc(Cl)cc4C3(C)C)c2)cn1` [Example 281, 5-Chloro-3,3-dimethyl-2-[5-(1-methyl-1H-pyrazol-4-ylmethyl)-pyridin-3-yl]-2,3-dihydro-isoindol-1-one], the EC50 on human CYP11B1 worked out at 3 nM; at human CYP11B2, 0.4 nM.

Turning to `CNC(=O)COc1cncc(N2CCc3cc(Cl)ccc3C2=O)c1` [Example 254, 2-[5-(6-Chloro-1-oxo-3,4-dihydro-1H-isoquinolin-2-yl)-pyridin-3-yloxy]-N-methyl-acetamide], the values for the EC50 at human CYP11B1 and at human CYP11B2 were 32500 nM and 2130 nM, respectively.

Consider `O=C1c2ccc(Cl)cc2CN1c1cncc(N2CCC[C@H]2CO)c1` [Example 136, 5-Chloro-2-[5-((S)-2-hydroxymethyl-pyrrolidin-1-yl)-pyridin-3-yl]-2,3-dihydro-isoindol-1-one], for which the results for the concentration giving a half-maximal response (EC50) on human CYP11B1 and on human CYP11B2 were 2660 nM and 102 nM, respectively.

As to `O=C1c2ccc(Cl)cc2CCN1c1cncc(Cc2cc(F)cc(F)c2)c1` [Example 211, 6-Chloro-2-[5-(3,5-difluoro-benzyl)-pyridin-3-yl]-3,4-dihydro-2H-isoquinolin-1-one], the concentration giving a half-maximal response (EC50) at human CYP11B1 is 53.2 nM; on human CYP11B2, 4.4 nM.

As for `CC(Nc1ccccc1)c1cncc(N2CCc3cc(Cl)ccc3C2=O)c1` (centres unmarked) [Example 278, 6-Chloro-2-[5-(1-phenylamino-ethyl)-pyridin-3-yl]-3,4-dihydro-2H-isoquinolin-1-one], the results for the EC50 on human CYP11B1 and at human CYP11B2 were 34.4 nM and 6.1 nM, respectively.

Consider `O=C1c2ccc(Cl)cc2CCN1c1cncc(Cn2ccnc2C2CC2)c1` [Example 188, 6-Chloro-2-[5-(2-cyclopropyl-imidazol-1-ylmethyl)-pyridin-3-yl]-3,4-dihydro-2H-isoquinolin-1-one], for which the EC50 worked out at 4150 nM at human CYP11B1 and 228 nM on human CYP11B2.

In the case of `CC(c1cncc(N2CCc3cc(Cl)ccc3C2=O)c1)N(C)C` (centres unmarked) [Example 266, 6-Chloro-2-[5-(1-dimethylamino-ethyl)-pyridin-3-yl]-3,4-dihydro-2H-isoquinolin-1-one], the half-maximal effective concentration (EC50) at human CYP11B1 was 276 nM; on human CYP11B2, 44.4 nM.

Consider `CC1c2cc(Cl)ccc2C(=O)N1c1cccnc1` (centres unmarked) [Example 118, 5-Chloro-3-methyl-2-pyridin-3-yl-2,3-dihydro-isoindol-1-one], for which the figures for the EC50 at human CYP11B1 and on human CYP11B2 were 1250 nM and 123 nM, respectively.

For `CCC1c2cc(Cl)ccc2C(=O)N1c1cnccc1Cl` (centres unmarked) [Example 284, 5-Chloro-2-(4-chloro-pyridin-3-yl)-3-ethyl-2,3-dihydro-isoindol-1-one], the concentration giving a half-maximal response (EC50) on human CYP11B1 was determined as 249 nM; on human CYP11B2, 20.5 nM.

As for `O=C1c2ccc(Cl)cc2CCN1c1cncc(Cc2c(Cl)cccc2Cl)c1` [Example 214, 6-Chloro-2-[5-(2,6-dichloro-benzyl)-pyridin-3-yl]-3,4-dihydro-2H-isoquinolin-1-one], the EC50 is 300 nM on human CYP11B1 and 63.6 nM at human CYP11B2.

For the molecule `O=C1c2ccc(Cl)cc2C2(CC2)N1c1cncc(F)c1` [Example 290, 6′-Chloro-2′-(5-fluoropyridin-3-yl)spiro[cyclo-propane-1,1′-isoindol]-3′(2′H)-one], the EC50 on human CYP11B1 stood at 3910 nM; on human CYP11B2 it was 101 nM.

Consider `COC[C@@H]1CCCN1Cc1cncc(N2CCc3cc(Cl)ccc3C2=O)c1` [Example 48, 6-Chloro-2-[5-((S)-2-methoxymethyl-pyrrolidin-1-ylmethyl)-pyridin-3-yl]-3,4-dihydro-2H-isoquinolin-1-one], for which the EC50 at human CYP11B1 stood at 1110 nM; on human CYP11B2 it was 141 nM.

For the molecule `O=C(Nc1cncc(N2CCc3cc(Cl)ccc3C2=O)c1)C1CC1` [Example 248, Cyclopropanecarboxylic acid [5-(6-chloro-1-oxo-3,4-dihydro-1H-isoquinolin-2-yl)-pyridin-3-yl]-amide], the 50% effective concentration (EC50) at human CYP11B1 stood at 2650 nM.

On to `O=C1c2ccc(Cl)cc2CCN1c1cncnc1` [Example 51, 6-Chloro-2-pyrimidin-5-yl-3,4-dihydro-2H-isoquinolin-1-one], for which, at human CYP11B2, a half-maximal effect (EC50) was put at 2680 nM.

For the molecule `C[C@@H]1Cc2cc(Cl)ccc2C(=O)N1c1cccnc1` [Example 91, (R)-6-Chloro-3-methyl-2-pyridin-3-yl-3,4-dihydro-2H-isoquinolin-1-one], at human CYP11B2, the half-maximal effective concentration (EC50) was 395 nM.

Molecule `CC(=O)N[C@H]1CCCc2c1cncc2N1C(=O)c2ccc(Cl)cc2[C@H]1C1CC1` (single isomer, unassigned) [Example 373, N-[(S or R)-4-((R or S)-5-Chloro-3-cyclopropyl-1-oxo-1,3-dihydro-isoindol-2-yl)-5,6,7,8-tetrahydro-isoquinolin-8-yl]-acetamide] gave a concentration giving a half-maximal response (EC50) on human CYP11B2 greater than 30000 nM.

Molecule `CC1Cc2cc(Cl)ccc2C(=O)N1c1cccnc1` (centres unmarked) [Example 88, 6-Chloro-3-methyl-2-pyridin-3-yl-3,4-dihydro-2H-isoquinolin-1-one] yielded an EC50 at human CYP11B2 of 761 nM. This counts as sub-micromolar.

`CC1c2ccc(Cl)cc2C(=O)N1c1cccnc1` (centres unmarked) [Example 119, 6-Chloro-3-methyl-2-pyridin-3-yl-2,3-dihydro-isoindol-1-one] displayed an EC50 at human CYP11B2 of 722 nM.

For `CCC(=O)Nc1cncc(N2CCc3cc(Cl)ccc3C2=O)c1` [Example 225, N-[5-(6-Chloro-1-oxo-3,4-dihydro-1H-isoquinolin-2-yl)-pyridin-3-yl]-propionamide], a half-maximal response on human CYP11B2 (EC50) required 2550 nM.

On to `CN(C)C(=O)COc1cncc(N2CCc3cc(Cl)ccc3C2=O)c1` [Example 256, 2-[5-(6-Chloro-1-oxo-3,4-dihydro-1H-isoquinolin-2-yl)-pyridin-3-yloxy]-N,N-dimethyl-acetamide], for which the EC50 on human CYP11B2 is 774 nM.

For the molecule `CC1Cc2cc(Cl)ccc2C(=O)N1c1cncnc1` (centres unmarked) [Example 90, 6-Chloro-3-methyl-2-pyrimidin-5-yl-3,4-dihydro-2H-isoquinolin-1-one], at human CYP11B2, the response was half-maximal at 1230 nM (EC50). This EC50 is about 1.6-fold higher than that of the molecule before.

`N#Cc1ccncc1N1CCc2cc(Cl)ccc2C1=O` [Example 74, 3-(6-Chloro-1-oxo-3,4-dihydro-1H-isoquinolin-2-yl)-isonicotinonitrile] showed a 50% effective concentration (EC50) at human CYP11B2 of 449 nM. This EC50 is about 2.7-fold lower than that of the molecule before.

For the molecule `CC(=O)NC1CCc2c1cncc2N1Cc2cc(Cl)ccc2C1=O` (single isomer, unassigned; (-)) [Example 318, (−)-N—[(S or R)-4-(5-Chloro-1-oxo-1,3-dihydro-isoindol-2-yl)-6,7-dihydro-5H-[2]pyrindin-7-yl]-acetamide], the concentration for a half-maximal effect (EC50) at human CYP11B2 is greater than 30000 nM.

Regarding `O=C1c2ccc(Cl)cc2CCN1c1cncc(N2C(=O)CC[C@H]2CO)c1` [Example 50, 6-Chloro-2-[5-((S)-2-hydroxymethyl-5-oxo-pyrrolidin-1-yl)-pyridin-3-yl]-3,4-dihydro-2H-isoquinolin-1-one], the response at human CYP11B2 was half-maximal at 1500 nM (EC50). That is a single-digit micromolar value.

Broadly, the EC50 is the concentration giving half of the maximal effect. Low readings indicate a more potent agent, high ones a less potent agent.

The record behind these values is patent publication US9133158B2, “Bicyclic dihydroisoquinoline-1-one derivatives” (Hoffmann-La Roche Inc., priority 2011, dated 2015).
